Source: ChEMBL document CHEMBL1921680, “Synthesis and antileishmanial evaluation of 1-aryl-4-(4,5-dihydro-1H-imidazol-2-yl)-1H-pyrazole derivatives” (Bioorg Med Chem Lett, 2011)
Activity calls are given as the source filed them. The rule behind the calls is not given here.

What was measured:
[1] = Cytotoxicity against mouse peritoneal macrophages at IC50 for Leishmania amazonensis MHOM/ BR/77/LTB0016; type: cell-based; conditions: peritoneal macrophage cell
[2] = tested on: Leishmania amazonensis; assay: Antileishmanial activity against extracellular promastigotes form of Leishmania amazonensis MHOM/ BR/77/LTB0016 after 24 hrs by neubauer chamber analysis; type: functional, organism-based; conditions: MHOM/ BR/77/LTB0016, 24 h
[3] = tested on: Leishmania infantum; assay: Antileishmanial activity against extracellular promastigotes form of Leishmania infantum MCAN/BR/98R619 after 24 hrs by neubauer chamber analysis; type: functional, organism-based; conditions: MCAN/BR/98R619, 24 h
[4] = tested on: Leishmania braziliensis; assay: Antileishmanial activity against extracellular promastigotes form of Leishmania braziliensis MCAN/BR/97/P142 after 24 hrs by neubauer chamber analysis; type: functional, organism-based; conditions: MCAN/BR/97/P142, 24 h
[5] = tested on: Leishmania amazonensis; assay: Antileishmanial activity against Leishmania amazonensis MHOM/ BR/77/LTB0016 infected in CBA mouse assessed as development of cutaneous lesions at 100 umol/kg, po qd for 30 days administered 4 weeks post infection measured up to week 21; type: functional, organism-based
[6] = tested on: Mus musculus; assay: Toxicity in CBA mouse infected with Leishmania amazonensis MHOM/ BR/77/LTB0016 assessed as change in leukocytes count at 100 umol/kg, po qd for 30 days administered 4 week post infection measured up to week 21; type: organism-based; conditions: in vivo
[7] = tested on: Mus musculus; assay: Renal toxicity in CBA mouse infected with promastigotes form of Leishmania amazonensis MHOM/ BR/77/LTB0016 assessed as change in creatinine level at 100 umol/kg, po qd for 30 days administered 4 week post infection measured up to week 21; type: organism-based; conditions: in vivo
[8] = tested on: Mus musculus; assay: Toxicity in CBA mouse infected with Leishmania amazonensis MHOM/ BR/77/LTB0016 assessed as weight loss at 29 to 100 umol/kg, po qd for 30 days administered 4 week post infection measured up to week 21; type: organism-based; conditions: in vivo
[9] = tested on: Mus musculus; assay: Hepatotoxicity in CBA mouse infected with promastigotes form of Leishmania amazonensis MHOM/ BR/77/LTB0016 assessed as change in ALT level at 100 umol/kg, po qd for 30 days administered 4 week post infection measured up to week 21; type: toxicity, organism-based; conditions: in vivo
[10] = tested on: Mus musculus; assay: Toxicity in CBA mouse infected with Leishmania amazonensis MHOM/ BR/77/LTB0016 assessed as change in monocytes count at 100 umol/kg, po qd for 30 days administered 4 week post infection measured up to week 21; type: organism-based; conditions: in vivo
[11] = tested on: Mus musculus; assay: Hepatotoxicity in CBA mouse infected with promastigotes form of Leishmania amazonensis MHOM/ BR/77/LTB0016 assessed as change in AST level at 100 umol/kg, po qd for 30 days administered 4 week post infection measured up to week 21; type: toxicity, organism-based; conditions: in vivo
[12] = tested on: Mus musculus; assay: Toxicity in CBA mouse infected with Leishmania amazonensis MHOM/ BR/77/LTB0016 assessed as change in neutrophils count at 100 umol/kg, po qd for 30 days administered 4 week post infection measured up to week 21; type: organism-based; conditions: in vivo
[13] = tested on: Mus musculus; assay: Toxicity in CBA mouse infected with Leishmania amazonensis MHOM/ BR/77/LTB0016 assessed as weight loss at 50 mg/kg, po qd for 30 days administered 4 week post infection measured up to week 21; type: organism-based; design: dose 50 mg/kg, route oral; conditions: in vivo
[14] = tested on: Leishmania amazonensis; assay: Antileishmanial activity against Leishmania amazonensis MHOM/ BR/77/LTB0016 infected in CBA mouse assessed as development of cutaneous lesions at 50 mg/kg, po qd for 30 days administered 4 weeks post infection measured up to week 21; type: functional, organism-based; design: dose 50 mg/kg
[15] = tested on: Mus musculus; assay: Toxicity in CBA mouse infected with Leishmania amazonensis MHOM/ BR/77/LTB0016 assessed as change in leukocytes count at 50 mg/kg, po qd for 30 days administered 4 week post infection measured up to week 21; type: organism-based; design: dose 50 mg/kg, route oral; conditions: in vivo
[16] = tested on: Mus musculus; assay: Toxicity in CBA mouse infected with Leishmania amazonensis MHOM/ BR/77/LTB0016 assessed as change in neutrophils count at 50 mg/kg, po qd for 30 days administered 4 week post infection measured up to week 21; type: organism-based; design: dose 50 mg/kg, route oral; conditions: in vivo
[17] = tested on: Mus musculus; assay: Toxicity in CBA mouse infected with Leishmania amazonensis MHOM/ BR/77/LTB0016 assessed as change in monocytes count at 50 mg/kg, po qd for 30 days administered 4 week post infection measured up to week 21; type: organism-based; design: dose 50 mg/kg, route oral; conditions: in vivo

Row | Structure (SMILES) | Activity [1] [%] | IC50 [2] [µM] | IC50 [3] [µM] | IC50 [4] [µM] | further results
1 | Clc1ccc(-n2cc(C3=NCCN3)cn2)cc1Cl | 5.32 | 297 | > 500 |  | 
2 | Brc1ccc(-n2cc(C3=NCCN3)cn2)cc1 | 3.52 | 30 | > 500 |  | 
3 | Nc1c(C2=NCCN2)cnn1-c1cccc(F)c1 |  | > 500 | > 500 | > 500 | 
4 | Fc1cccc(-n2cc(C3=NCCN3)cn2)c1 |  | 54 | > 500 |  | 
5 | Nc1c(C2=NCCN2)cnn1-c1cc(Cl)cc(Cl)c1 |  | 15.5 | > 500 | 437 | Activity [5]: Active; Activity [6]: Non-toxic; Activity [7]: Non-toxic; Activity [8]: Non-toxic; Activity [9]: Non-toxic; Activity [10]: Non-toxic; Activity [11]: Non-toxic; Activity [12]: Non-toxic
6 | Nc1c(C2=NCCN2)cnn1-c1ccccc1 |  | 365 | > 500 | 433 | 
7 | Nc1c(C2=NCCN2)cnn1-c1cccc(Br)c1 |  | 31.3 |  |  | 
8 | Clc1cc(Cl)cc(-n2cc(C3=NCCN3)cn2)c1 | 3.97 | > 500 | > 500 | 459 | 
9 | Brc1cccc(-n2cc(C3=NCCN3)cn2)c1 | 11.98 | > 500 | > 500 |  | 
10 | Clc1cccc(-n2cc(C3=NCCN3)cn2)c1 | 6.46 | 60 | > 500 | > 500 | 
11 | Nc1c(C2=NCCN2)cnn1-c1ccc(Cl)c(Cl)c1 | 15.5 | 381 |  |  | 
12 | Nc1c(C2=NCCN2)cnn1-c1ccc(Br)cc1 |  | > 500 | > 500 | 272 | 
13 | Nc1c(C2=NCCN2)cnn1-c1cccc(Cl)c1 | 15.2 | > 500 | > 500 | > 500 | 
14 | N=C(N)c1ccc(OCCCCCOc2ccc(C(=N)N)cc2)cc1 [PENTAMIDINE] | 31 | 10 | 100 | 50 | 
15 | CC(=O)N1CCN(c2ccc(OCC3COC(Cn4ccnc4)(c4ccc(Cl)cc4Cl)O3)cc2)CC1 (centres undefined) [KETOCONAZOLE] |  |  |  |  | Activity [13]: Non-toxic; Activity [14]: Active; Activity [15]: Non-toxic; Activity [16]: Non-toxic; Activity [17]: Non-toxic
16 | c1ccc(-n2cc(C3=NCCN3)cn2)cc1 | 11.26 | 43 | > 500 | > 500 | 
